Data as given in patent US8236756B2, “Prodrugs cleavable by CD26” (Consejo Superior de Investigaciones Clentificas (CSIC), priority 2003, dated 2012).
Values belong to the compound of their own block, whether it stands above or below them.

What was measured:
[1] = Conversion of prodrugs to parent compound by human serum diluted in PBS; assay type: in vitro ADME
Procedure: (§1) Human and bovine serum were incubated for 3 hr, 6 hr and/or 24 hr at 37° C. in the presence of 50 μM CAM-405. The sera were diluted in PBS at a final concentration of 0.5, 1, 2.5 or 5%. […] The longer the incubation time, and the higher the serum concentration used, the faster the conversion of CAM-405 to CAM-212 occurred (FIG. 4). As also noted for CD26, HS- and BS-catalysed reaction slowed down in function of time, and was not linearly proportional with serum concentration (FIG. 4). These findings provide again evidence for a pronounced feed-back inhibition of dipeptidyl-peptidase activity in human and bovine serum by the released Val-Pro dipeptide. HS was more efficient in converting CAM-405 to CAM-212 than BS (FIG. 4). Since 1% HS is able to hydrolyse ˜20% of 50 μM CAM-405 within 3 hrs of incubation, it could be calculated that undiluted serum would have been able to convert this prodrug amount to its parent compound at a hundred fold higher speed, that is, within 1.8 min, provided that no feed-back inhibition would have occurred (as expected in the intact organism where release of Pro-Val would immediately result in disappearance from the plasma due to several mechanisms including organ uptake, renal excretion, etc.).
Only a very limited amount of NAP-TSAO (but not D-Pro-NAP-TSAO) had been detected (FIG. 6).
(§2) Ten percent BS or HS converted 40 to 70% of PI-2 to PI-1 in one hour (FIG. 10). Two percent BS and HS converted PI-2 to PI-1 by 8% and 25%, respectively. After 4 hrs, 35% and 95% of compound was hydrolyzed by BS and HS, respectively (FIG. 11).
(§3) The TSAO derivatives depicted in FIG. 1 can be synthesised as described below. GlyPro-pNA (GP-pNA), Diprotin A and Val-Pro were purchased from Sigma-Aldrich (Bornem, Belgium). CD26 was purified as described before [De Meester et al. J. Immunol. Methods (1996), 189: 99-105]. Foetal bovine serum (FBS) was obtained from Integro (Dieren, The Netherlands). Human serum represented a pooled serum that was derived from 10 healthy volunteers (blood donors). Human lymphocyte CEM cells were derived from the ATCC (Rockville, Md.).

[2] = Inhibition of GP-pNA conversion to pNA by 2% bovine serum; assay type: biochemical; details: 2% BS in PBS
[3] = Conversion of prodrugs to parent compound by bovine serum diluted in PBS; assay type: in vitro ADME
Procedure: as §1, §2, §3

[4] = Inhibition of GP-pNA conversion to pNA by 2% human serum; assay type: biochemical; details: 2% HS in PBS
purified CD26 [5] = molecular target: T1, purified CD26 (Homo sapiens, UniProt P27487); assay: Conversion of peptide prodrugs to parent compound by purified CD26 (HPLC); assay type: biochemical
T1 construct: made in house
T1 sequence (P27487 whole entry): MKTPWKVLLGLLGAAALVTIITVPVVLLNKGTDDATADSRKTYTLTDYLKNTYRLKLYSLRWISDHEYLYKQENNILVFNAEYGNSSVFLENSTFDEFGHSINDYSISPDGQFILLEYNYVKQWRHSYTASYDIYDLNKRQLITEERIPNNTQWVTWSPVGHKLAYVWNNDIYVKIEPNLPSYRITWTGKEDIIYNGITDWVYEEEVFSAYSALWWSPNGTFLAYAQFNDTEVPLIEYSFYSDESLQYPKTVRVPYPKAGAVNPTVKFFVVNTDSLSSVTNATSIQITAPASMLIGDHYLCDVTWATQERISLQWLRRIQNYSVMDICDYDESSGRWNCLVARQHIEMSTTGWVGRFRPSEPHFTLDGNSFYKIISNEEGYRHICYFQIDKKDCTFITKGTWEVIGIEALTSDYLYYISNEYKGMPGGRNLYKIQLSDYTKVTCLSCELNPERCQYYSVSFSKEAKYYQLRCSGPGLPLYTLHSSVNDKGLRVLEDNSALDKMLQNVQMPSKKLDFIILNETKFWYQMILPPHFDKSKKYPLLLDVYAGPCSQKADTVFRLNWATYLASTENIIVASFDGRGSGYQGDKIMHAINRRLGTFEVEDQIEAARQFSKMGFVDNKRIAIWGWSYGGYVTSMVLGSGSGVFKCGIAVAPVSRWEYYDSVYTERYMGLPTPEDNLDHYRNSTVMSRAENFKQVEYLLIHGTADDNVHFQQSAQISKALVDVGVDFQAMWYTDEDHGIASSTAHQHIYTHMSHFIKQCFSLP
Outline: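 Peptide prodrugs of lipophilic nucleoside analogues were incubated with purified human CD26 at a final concentration of 1.5 milliUnits in PBS at pH 7.5, 37° C, in a 400 μl reaction started by enzyme addition. Samples were mixed with cold methanol to precipitate protein, centrifuged, and the supernatants analysed by reverse-phase HPLC to quantify conversion to the parent compound.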

CD26 = molecular target: T2, CD26 (Homo sapiens, UniProt P27487); assay: Inhibition of CD26-catalysed conversion of GP-pNA to GP+pNA (pNA release, absorption at 400 nm); assay type: biochemical; details: 50 μM GP-pNA
T2 construct: made in house
T2 sequence (P27487 whole entry): as above
Procedure: The CD26 catalytic reaction was measured by recording the increase of absorption caused by pNA release at 400 nm.
To reveal whether CD26 recognizes such synthetic di/tripeptide derivatives of lipophilic nucleoside analogues as a substrate, 50 μM CAM-405 or CAM-431 was exposed to 5.7 mUnits of purified CD26, and the conversion of CAM-405 or CAM-431 to respectively CAM-212 or CAM-403 (Val-NAP-TSAO) was recorded in function of incubation time by HPLC analysis. […] The inhibitory activity of any dipeptide can be evaluated by the above mentioned assay.

purified CD26 [6] = molecular target: T1, purified CD26; assay: Conversion of peptide prodrugs to parent compound by purified CD26 (HPLC); assay type: biochemical; details: 50 μM, 5.7 mUnits purified CD26, 37° C.
[7] = system: T-lymphocytic CEM cell suspensions; assay: Conversion of Val-Pro-NAP-TSAO to NAP-TSAO by CEM cell suspensions; assay type: cell-based, human; details: ten million CEM cells in 200 μl PBS; 3 hrs; 37° C.
Procedure: The conversion of Val-Pro-NAP-TSAO (CAM-405) to NAP-TSAO (CAM-212) also efficiently occurred by carefully washed T-lymphocytic CEM cell suspensions in PBS. Ten million CEM cells suspended in 200 μl PBS hydrolysed the Val-Pro moiety from CAM-405 by 65% within 3 hrs of incubation at 37° C. This amount of hydrolysis was found both in the PBS supernatant and in the CEM cell extracts. Presumably, CD26 present in the cell membrane of CEM cells had cleaved-off the Val-Pro from CAM-405 after which both truncated and intact prodrug had been taken up by the lymphocytic cells to an equal extent.
as §3

- Compound hydrolyzed by HS after 4 hrs ([1]; 2% HS in PBS, 4 hrs): 95%
- Conversion to PI 1 by two percent HS ([1]; 2% HS in PBS, time not restated (one hour in the sentence before)): 25%
- Compound hydrolyzed by BS after 4 hrs ([3]; 2% BS in PBS, 4 hrs): 35%
- Conversion to PI 1 by two percent BS ([3]; 2% BS in PBS, time not restated (one hour in the sentence before)): 8%
- Conversion of Val-Pro-PI 1 (PI-2) to PI 1 by purified CD26 within 60 min, in words (purified CD26 [5]; purified CD26, within 60 min): completely converted
- Inhibition of release of pNA from GP-pNA at 20 μM, in words (CD26; 20 μM): could inhibit
- Competition with GP-pNA for CD26 at 100 μM, in words (CD26; 100 μM): efficiently competed
SMILES: CC(C)CN(C[C@@H](O)[C@H](Cc1ccccc1)NC(=O)O[C@H]1CO[C@H]2OCC[C@H]21)S(=O)(=O)c1ccc(CNC(=O)[C@@H]2CCCN2C(=O)[C@@H](N)C(C)C)cc1 [Val-Pro-PI 1]
- Inhibition of GP-pNA conversion to pNA by two percent BS, in words [2]: even more efficiently inhibited
- Inhibition of HS-catalysed GP-pNA conversion to pNA, in words [4]: competitively inhibited

- Calculated time for undiluted serum to convert this prodrug amount to parent compound ([1]; 10 μM, extrapolated from 1% human serum): less than 1.8 min
- Conversion of CAM-405 to CAM-212 by human serum, in words ([1]; 50 μM, 0.5-5% HS in PBS, 3, 6, 24 hr, 37° C.): efficiently converted
- Hydrolysis of CAM-405 by 1% human serum within 3 hrs ([1]; 50 μM, 1% HS in PBS, 3 hrs, 37° C.): ~20%
- Calculated time for undiluted serum to convert this prodrug amount to parent compound ([1]; undiluted human serum, extrapolated, provided no feed-back inhibition): ≤ 1.8 min
- Conversion of CAM-405 to CAM-212 by bovine serum, in words ([3]; 50 μM, 0.5-5% BS in PBS, 3, 6, 24 hr, 37° C.): efficiently converted
- Hydrolysis of CAM-405, after 60 min (purified CD26 [6]): ~67%
- Conversion of CAM-405 to CAM-212, first 10 min (purified CD26 [5]; 50 μM, 5.7 mUnits purified CD26, 37° C., 10 min): at least 20%
- Conversion of CAM-405 to CAM-212, within 30 min (purified CD26 [5]; 50 μM, 5.7 mUnits purified CD26, 37° C., 30 min): fifty
- Conversion % to parent compound by purified CD26, 1 h (purified CD26 [5]; Table 1, purified CD26 1.5 mUnits, 1 h): 37%
- Conversion % to parent compound by purified CD26, 4 h (purified CD26 [5]; Table 1, purified CD26 1.5 mUnits, 4 h): 62%
- Conversion % to parent compound by purified CD26, 24 h (purified CD26 [5]; Table 1, purified CD26 1.5 mUnits, 24 h): 61%
- % conversion to parent compound by purified CD26, 1 h (purified CD26 [5]; Table 2, purified CD26 1.5 mUnits, 1 h): 37%
- % conversion to parent compound by purified CD26, 4 h (purified CD26 [5]; Table 2, purified CD26 1.5 mUnits, 4 h): 62%
- % conversion to parent compound by purified CD26, 24 h (purified CD26 [5]; Table 2, purified CD26 1.5 mUnits, 24 h): 61%
SMILES: Cc1cn(C2OC(CO[Si](C)(C)C(C)(C)C)C3(OS(=O)(=O)C=C3N)C2O[Si](C)(C)C(C)(C)C)c(=O)n(CCCNC(=O)[C@@H]2CCCN2C(=O)[C@@H](N)C(C)C)c1=O (stereo partly drawn) [CAM-405, H-Val-Pro-NAP-TSAO]
- Hydrolysis of the Val-Pro moiety by CEM cells [7]: 65%
